Reference: ChEMBL document CHEMBL3621077, “Synthesis of hybrid anticancer agents based on kinase and histone deacetylase inhibitors” (Medchemcomm, 2014)

Key:
UO-31 = assay: Cytotoxicity against human UO31 cells; assay type: functional
Malme-3M = assay: Cytotoxicity against human MALME-3M cells; assay type: functional
MDA-MB-231 [1] = assay: Cytotoxicity against human MDA-MB-231 cells assessed as reduction of cell viability at 200 uM after 72 hrs by MTT assay relative to control; assay type: functional
786-0 = assay: Cytotoxicity against human 786-0 cells; assay type: functional
SNB-75 = assay: Cytotoxicity against human SNB75 cells; assay type: functional
K562 = assay: Cytotoxicity against human K562 cells; assay type: functional
Histone deacetylase 8 = target: T1, Histone deacetylase 8 (Homo sapiens, UniProt Q9BY41); assay: Inhibition of HDAC8 (unknown origin); settings: read-out: IC50
T1 sequence (Q9BY41 whole entry): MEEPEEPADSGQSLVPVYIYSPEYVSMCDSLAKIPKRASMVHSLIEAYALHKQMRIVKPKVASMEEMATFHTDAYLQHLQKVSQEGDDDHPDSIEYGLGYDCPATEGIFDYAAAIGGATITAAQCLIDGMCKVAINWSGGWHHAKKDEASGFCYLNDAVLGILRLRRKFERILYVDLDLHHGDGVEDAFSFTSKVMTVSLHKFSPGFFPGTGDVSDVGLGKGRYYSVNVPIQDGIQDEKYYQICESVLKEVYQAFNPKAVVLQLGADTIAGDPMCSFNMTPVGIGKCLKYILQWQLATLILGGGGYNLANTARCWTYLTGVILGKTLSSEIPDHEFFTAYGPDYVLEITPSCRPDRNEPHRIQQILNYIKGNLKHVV

PC-3 = assay: Cytotoxicity against human PC3 cells; assay type: functional
[2] = target: T2, Protein deacetylase HDAC6 (Homo sapiens, UniProt Q9UBN7); assay: Inhibition of HDAC6 (unknown origin); settings: read-out: IC50
T2 sequence (Q9UBN7 whole entry): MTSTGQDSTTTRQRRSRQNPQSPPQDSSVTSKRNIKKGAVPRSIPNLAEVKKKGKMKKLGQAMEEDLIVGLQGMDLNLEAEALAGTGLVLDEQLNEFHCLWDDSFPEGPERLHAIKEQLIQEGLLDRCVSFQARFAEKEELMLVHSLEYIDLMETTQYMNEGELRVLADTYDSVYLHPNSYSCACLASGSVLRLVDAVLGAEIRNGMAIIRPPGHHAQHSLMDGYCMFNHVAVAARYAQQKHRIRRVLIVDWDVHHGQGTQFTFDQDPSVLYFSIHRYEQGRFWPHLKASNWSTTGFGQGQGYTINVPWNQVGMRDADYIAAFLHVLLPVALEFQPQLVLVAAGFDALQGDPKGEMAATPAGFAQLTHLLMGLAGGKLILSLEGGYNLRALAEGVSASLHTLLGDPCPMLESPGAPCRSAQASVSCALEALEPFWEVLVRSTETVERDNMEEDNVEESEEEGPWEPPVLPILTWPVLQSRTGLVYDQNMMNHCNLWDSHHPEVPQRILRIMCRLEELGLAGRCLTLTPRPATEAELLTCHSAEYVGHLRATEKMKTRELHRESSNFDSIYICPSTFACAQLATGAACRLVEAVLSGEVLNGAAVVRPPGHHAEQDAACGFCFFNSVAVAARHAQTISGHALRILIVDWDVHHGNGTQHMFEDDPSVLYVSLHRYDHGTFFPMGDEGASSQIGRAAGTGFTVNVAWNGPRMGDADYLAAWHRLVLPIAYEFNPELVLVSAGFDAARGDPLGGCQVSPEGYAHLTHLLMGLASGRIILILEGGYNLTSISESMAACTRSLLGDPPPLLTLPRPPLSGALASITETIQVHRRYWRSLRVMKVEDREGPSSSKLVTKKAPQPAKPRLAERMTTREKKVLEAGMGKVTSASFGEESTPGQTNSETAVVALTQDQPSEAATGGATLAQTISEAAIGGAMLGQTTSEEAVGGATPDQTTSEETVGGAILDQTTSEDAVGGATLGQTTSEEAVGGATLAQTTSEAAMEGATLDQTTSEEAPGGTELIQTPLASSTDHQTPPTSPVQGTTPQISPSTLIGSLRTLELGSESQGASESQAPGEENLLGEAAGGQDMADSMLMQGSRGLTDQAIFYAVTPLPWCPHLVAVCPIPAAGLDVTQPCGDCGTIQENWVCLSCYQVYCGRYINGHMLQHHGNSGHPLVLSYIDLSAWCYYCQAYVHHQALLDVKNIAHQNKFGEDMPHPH

NCI-H23 = assay: Cytotoxicity against human NCI-H23 cells; assay type: functional
SK-MEL-28 = assay: Cytotoxicity against human SK-MEL-28 cells; assay type: functional
NCI-H226 = assay: Cytotoxicity against human NCI-H226 cells; assay type: functional
MDA-MB-231 [3] = assay: Cytotoxicity against human MDA-MB-231 cells assessed as reduction of cell viability after 72 hrs by MTT assay; assay type: functional, cell-based; settings: MDA-MB-231, 72 h
SF-268 = assay: Cytotoxicity against human SF268 cells; assay type: functional
M14 = assay: Cytotoxicity against human M14 cells; assay type: functional
Histone deacetylase = assay type: cell-based, Homo sapiens; settings: hela
[4] = target: Vascular endothelial growth factor receptor 1 (Homo sapiens, UniProt P17948); assay: Inhibition of VEGFR1 (unknown origin); settings: read-out: IC50
Chain of Vascular endothelial growth factor receptor 1 (P17948 whole entry): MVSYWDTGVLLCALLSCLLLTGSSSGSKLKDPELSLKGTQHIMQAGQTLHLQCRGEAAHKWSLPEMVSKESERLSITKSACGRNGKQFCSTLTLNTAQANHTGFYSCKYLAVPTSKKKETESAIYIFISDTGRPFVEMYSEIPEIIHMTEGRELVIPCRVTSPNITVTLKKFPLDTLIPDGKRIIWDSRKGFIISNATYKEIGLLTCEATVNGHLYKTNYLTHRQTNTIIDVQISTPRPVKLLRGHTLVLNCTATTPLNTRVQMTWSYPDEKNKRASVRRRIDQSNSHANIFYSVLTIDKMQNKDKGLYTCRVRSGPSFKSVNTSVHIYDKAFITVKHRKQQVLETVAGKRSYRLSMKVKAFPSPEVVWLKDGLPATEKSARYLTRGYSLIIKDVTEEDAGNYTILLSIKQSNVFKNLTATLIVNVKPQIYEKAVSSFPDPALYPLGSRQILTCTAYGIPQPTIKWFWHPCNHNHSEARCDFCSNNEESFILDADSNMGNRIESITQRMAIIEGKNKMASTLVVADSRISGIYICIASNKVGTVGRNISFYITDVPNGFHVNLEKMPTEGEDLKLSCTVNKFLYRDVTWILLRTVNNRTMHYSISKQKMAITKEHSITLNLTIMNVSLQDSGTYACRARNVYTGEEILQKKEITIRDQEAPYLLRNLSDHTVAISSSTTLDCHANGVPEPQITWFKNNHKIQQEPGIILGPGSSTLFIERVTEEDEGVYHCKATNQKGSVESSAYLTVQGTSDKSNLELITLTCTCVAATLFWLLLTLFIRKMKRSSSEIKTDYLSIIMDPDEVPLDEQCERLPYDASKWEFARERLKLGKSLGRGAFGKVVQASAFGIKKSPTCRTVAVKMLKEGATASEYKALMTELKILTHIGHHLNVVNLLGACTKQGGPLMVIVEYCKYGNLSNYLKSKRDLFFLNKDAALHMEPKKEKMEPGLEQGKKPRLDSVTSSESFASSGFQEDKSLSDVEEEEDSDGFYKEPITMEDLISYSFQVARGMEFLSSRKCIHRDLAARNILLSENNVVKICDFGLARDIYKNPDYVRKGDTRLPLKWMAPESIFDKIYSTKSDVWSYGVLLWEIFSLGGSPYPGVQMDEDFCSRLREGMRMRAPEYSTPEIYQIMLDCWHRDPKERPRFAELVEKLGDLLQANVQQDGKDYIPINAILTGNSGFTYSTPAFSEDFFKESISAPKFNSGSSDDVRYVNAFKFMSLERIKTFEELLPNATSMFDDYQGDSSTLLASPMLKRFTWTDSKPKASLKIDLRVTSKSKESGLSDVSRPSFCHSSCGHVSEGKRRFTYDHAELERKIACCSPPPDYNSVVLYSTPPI

HCT-116 = assay: Cytotoxicity against human HCT116 cells; assay type: functional
OVCAR-8 = assay: Cytotoxicity against human OVCAR8 cells; assay type: functional
HCT-15 = assay: Cytotoxicity against human HCT15 cells; assay type: functional
A549 = assay: Cytotoxicity against human A549 cells; assay type: functional
SR = assay: Cytotoxicity against human SR cells; assay type: functional
SK-MEL-2 = assay: Cytotoxicity against human SK-MEL-2 cells; assay type: functional
SF-295 = assay: Cytotoxicity against human SF295 cells; assay type: functional
Histone deacetylase 5 = Histone deacetylase 5 (Homo sapiens, UniProt Q9UQL6); assay: Inhibition of HDAC5 (unknown origin); settings: read-out: IC50
Chain of Histone deacetylase 5 (Q9UQL6 whole entry): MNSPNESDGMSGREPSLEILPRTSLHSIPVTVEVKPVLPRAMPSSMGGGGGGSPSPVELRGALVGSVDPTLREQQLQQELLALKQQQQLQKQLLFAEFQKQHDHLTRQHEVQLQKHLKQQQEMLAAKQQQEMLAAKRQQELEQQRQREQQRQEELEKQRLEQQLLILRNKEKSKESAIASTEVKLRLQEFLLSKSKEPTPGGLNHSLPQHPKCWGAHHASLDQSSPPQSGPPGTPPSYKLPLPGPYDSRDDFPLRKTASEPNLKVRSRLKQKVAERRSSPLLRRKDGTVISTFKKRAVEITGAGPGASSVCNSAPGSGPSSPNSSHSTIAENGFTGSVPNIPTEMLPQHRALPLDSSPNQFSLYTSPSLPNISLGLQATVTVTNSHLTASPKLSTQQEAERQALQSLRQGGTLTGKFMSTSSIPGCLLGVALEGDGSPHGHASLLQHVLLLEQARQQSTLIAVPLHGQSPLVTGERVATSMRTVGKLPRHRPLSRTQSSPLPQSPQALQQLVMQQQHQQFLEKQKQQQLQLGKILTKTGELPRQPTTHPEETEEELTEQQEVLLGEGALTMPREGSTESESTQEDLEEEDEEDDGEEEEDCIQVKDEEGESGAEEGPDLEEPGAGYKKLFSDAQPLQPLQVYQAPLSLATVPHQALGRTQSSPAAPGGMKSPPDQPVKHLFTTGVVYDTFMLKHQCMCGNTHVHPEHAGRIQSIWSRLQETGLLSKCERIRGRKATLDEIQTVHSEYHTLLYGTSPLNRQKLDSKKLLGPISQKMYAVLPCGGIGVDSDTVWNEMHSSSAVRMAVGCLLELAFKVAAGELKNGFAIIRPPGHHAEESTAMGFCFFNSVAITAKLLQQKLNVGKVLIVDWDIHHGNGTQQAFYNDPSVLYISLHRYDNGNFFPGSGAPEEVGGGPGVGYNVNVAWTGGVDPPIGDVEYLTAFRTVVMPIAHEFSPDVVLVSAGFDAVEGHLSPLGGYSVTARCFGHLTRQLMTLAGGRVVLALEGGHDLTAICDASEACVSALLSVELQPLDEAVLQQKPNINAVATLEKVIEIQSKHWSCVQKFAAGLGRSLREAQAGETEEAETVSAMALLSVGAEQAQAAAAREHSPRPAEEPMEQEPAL

COLO 205 = assay: Cytotoxicity against human COLO205 cells; assay type: functional
Histone deacetylase 1 = Histone deacetylase 1 (Homo sapiens, UniProt Q13547); assay: Inhibition of HDAC1 (unknown origin)
Chain of Histone deacetylase 1 (Q13547 whole entry): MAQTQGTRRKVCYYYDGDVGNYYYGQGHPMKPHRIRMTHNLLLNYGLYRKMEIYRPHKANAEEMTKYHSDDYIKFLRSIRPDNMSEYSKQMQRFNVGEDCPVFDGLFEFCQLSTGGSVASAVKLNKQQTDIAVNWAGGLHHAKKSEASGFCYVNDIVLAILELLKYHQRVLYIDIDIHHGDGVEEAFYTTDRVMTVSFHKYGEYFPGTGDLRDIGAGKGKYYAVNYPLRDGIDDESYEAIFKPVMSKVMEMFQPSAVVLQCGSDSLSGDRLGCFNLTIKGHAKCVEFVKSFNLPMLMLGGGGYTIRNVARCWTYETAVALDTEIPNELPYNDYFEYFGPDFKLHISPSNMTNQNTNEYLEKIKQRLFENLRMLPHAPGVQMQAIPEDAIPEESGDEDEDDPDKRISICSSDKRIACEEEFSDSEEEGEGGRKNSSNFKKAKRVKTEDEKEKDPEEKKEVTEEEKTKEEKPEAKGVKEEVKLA

MDA-MB-231 [5] = assay: Cytotoxicity against human MDA-MB-231 cells; assay type: functional
MDA-MB-435 = assay: Cytotoxicity against human MDA-MB-435 cells; assay type: functional
OVCAR-4 = assay: Cytotoxicity against human OVCAR4 cells; assay type: functional

Question: With O=C(CCCCCCC(=O)Nc1ccc2c(c1)/C(=C/c1ccc[nH]1)C(=O)N2)NO as the compound, how does the GI50 (UO-31) read?
Answer: 775 nM

Question: What about the GI50 (Malme-3M) of the same compound?
Answer: 86 nM

Question: And the Activity (MDA-MB-231 [1])?
Answer: 30%

Question: And the GI50 (786-0)?
Answer: 2400 nM

Question: What about the GI50 (SNB-75) of the same compound?
Answer: 194 nM

Question: What about the GI50 (K562) of the same compound?
Answer: 251 nM

Question: And the IC50 (Histone deacetylase 8)?
Answer: 60.2 nM

Question: What about the GI50 (PC-3) of the same compound?
Answer: 917 nM

Question: And the IC50 [2]?
Answer: 0.323 nM

Question: And the GI50 (NCI-H23)?
Answer: 1320 nM

Question: And the GI50 (SK-MEL-28)?
Answer: 406 nM

Question: And the GI50 (NCI-H226)?
Answer: 2320 nM

Question: And the IC50 (MDA-MB-231 [3])?
Answer: 29000 nM

Question: What about the GI50 (SF-268) of the same compound?
Answer: 1190 nM

Question: And the GI50 (M14)?
Answer: 489 nM

Question: What about the IC50 (Histone deacetylase) of the same compound?
Answer: 117 nM

Question: And the IC50 [4]?
Answer: 365 nM

Question: And the GI50 (HCT-116)?
Answer: 238 nM

Question: What about the GI50 (OVCAR-8) of the same compound?
Answer: 499 nM

Question: And the GI50 (HCT-15)?
Answer: 4590 nM

Question: What about the GI50 (A549) of the same compound?
Answer: 2900 nM

Question: What about the GI50 (SR) of the same compound?
Answer: 296 nM

Question: What about the GI50 (SK-MEL-2) of the same compound?
Answer: 989 nM

Question: What about the GI50 (SF-295) of the same compound?
Answer: 1310 nM

Question: What about the IC50 (Histone deacetylase 5) of the same compound?
Answer: 850 nM

Question: What about the GI50 (COLO 205) of the same compound?
Answer: 248 nM

Question: What about the IC50 (Histone deacetylase 1) of the same compound?
Answer: 0.00687 nM

Question: And the GI50 (MDA-MB-231 [5])?
Answer: 1000 nM

Question: And the GI50 (MDA-MB-435)?
Answer: 341 nM

Question: What about the GI50 (OVCAR-4) of the same compound?
Answer: 1270 nM
